System: S. cerevisiae cells
Assay: Transport assay: uptake of CCM by yeast cells (LC-MS)
Assay type: cell-based, Saccharomyces cerevisiae
Conditions: pH 4.5, 24 h
Procedure: Overnight grown CEN.PK113-5A cells were diluted (OD600=0.1) into SC-HIS-LEU medium with or without 1.4 mM (200 mg/L) CCM. Media samples were taken at both 0 h and 24 h, while samples for measuring cellular lysates (10^8 cells) were harvested at 24 h. For quantification of CCM by LC-MS, cultures were harvested by centrifugation. For extracellular CCM quantification the supernatant was centrifuged twice and filtered (0.2 μm) before analysis. For intracellular CCM quantification harvested pellets were washed twice in ice-cold isotonic saline solution (0.9% NaCl) and centrifuged at 5,000×g before cells were extracted in an aqueous 0.1% formic acid solution and sonicated for 15 min. Following this, samples were centrifuged at 13,000×g and supernatants filtered (0.2 μm) prior to analysis. LC-MS data was collected on EVOQ EliteTriple Quadrupole Mass Spectrometer system coupled with an Advance UHPLC (Bruker). Samples were held at 4° C. during the analysis. A 1 μL sample was injected onto a ACQUITY HSS T3 C18 UHPLC column (Waters), with a 1.8 μm particle size and 2.1×100 mm dimensioning. The column was held at a temperature of 30° C. […] Two transitions were chosen in negative Multiple Reaction Monitoring (MRM) mode for quantification of CCM: m/z 141.70-96.80 (quantification transition) and m/z 141.70-53.1 (confirmation transition). […]

## O=C(O)/C=C\C=C/C(=O)O [CCM, cis, cis-muconic acid]
  uptake of CCM by yeast: directly taken up
